# Experimental data taken from US20150140020A1, “PHARMACEUTICAL COMPOSITION FOR TREATING ADVERSE REACTIONS DUE TO ADMINISTRATION OF SPIEGELMERS” (Freie Universitaet Berlin, priority 2009, published 2015).
# [L-RNA-N] = L-ribonucleotide (mirror-image RNA) (N: the base); {FAM} = fluorescein label
# Experiments:
# Format in all cases: biochemical
# [1] = test system: D-target (Seq-ID 1 RNA with D-nucleotides); assay: Cleavage assay: D-target with D-ribozyme; details: FIG. 4B; MgCl2 1-25 mM; 10-fold ribozyme excess
# Procedure: (§1) The activities of L-ribozymes and D-ribozymes were measured in various conditions. The basic conditions were as follows. […] in 50 mM Tris-HCl buffer, pH 7.5, at 20° C. for 2 hours (ribozymes/target ratio therefore 10:1, 1:1 and 1:10). Before the reaction, target RNA and ribozyme were denatured for 2 minutes at 70° C. and cooled slowly (1° C./min) in the heating unit to 25° C. The influence of the Mg^2+ ions at concentration from 0.1 to 25 mM was investigated. Cleavage products were separated on 20% polyacrylamide gel electrophoresis in the presence of 8 M urea in 0.09 M Tris-borate buffer, pH 8.3. The fluorescence was analyzed on Phosphoimager Fuji Film FLA 5100. The data were obtained with the program Fuji Analysis Program. Diagrams were prepared with Excel.
# (§2) The following were prepared as target sequences by way of contract synthesis by the company ChemGenes Corporation, Wilmington, USA: • Seq-ID 1: 5′-FAM-ACAGUCGGUCGCC-3′ (RNA, both with D-nucleotides and with L-nucleotides) and • Seq-ID 2: 5′-FAM-ACAGTCGGTCGCC-3′ (DNA, both with D-nucleotides and with L-nucleotides).
# (§3) All synthesis products were labeled with fluorescein at the 5′-end.
# [2] = test system: L-target (Seq-ID 1 RNA with L-nucleotides); assay: Cleavage assay: L-target with D-ribozyme; details: FIG. 2; MgCl2 0-25 mM; 0.2 μM target with 2 μM ribozyme
# Procedure: as §1, §2
# All synthesis products were labeled with fluorescein at the 5′-end. […]
# [3] = test system: L-target (Seq-ID 1 RNA with L-nucleotides); assay: Cleavage assay: L-target with L-ribozyme
# Procedure: as §1, §2, §3
# [4] = test system: D-target (Seq-ID 1 RNA with D-nucleotides); assay: Cleavage assay: D-target with L-ribozyme
# Procedure: as §1, §2, §3
# C is the control (L-target+L-ribozyme), tracks 1 to 5 are the various MgCl2 concentrations given in the diagram (0-25 mM) for target without ribozyme, tracks 6 to 9 0.2 μM target with 2 μM ribozyme.
# [5] = test system: L-target; assay: Cleavage of L-target by L-ribozyme in human serum; details: FIG. 12; conditions of human serum
substance,measurement,setting,value
"5′-FAM-GGCGACCCUGAUGAGGCCGAAAGGCCGAAACUGU-3′ (RNA, 5' {FAM}, backbone not given here) [D-ribozyme]",proportion of cleavage products of D-target with D-ribozyme as a function of MgCl2 concentration,[1],increases with increasing Mg concentration
same,cleavage of L-target by D-ribozyme,[2],does not cleave
"5′-FAM-GGCGACCCUGAUGAGGCCGAAAGGCCGAAACUGU-3′ (all [L-RNA-N], 5' {FAM}, backbone not given here) [L-ribozyme]",proportion of cleavage products of L-target with L-ribozyme as a function of MgCl2 concentration,"[3]; FIG. 4B, MgCl2 1-25 mM, 10-fold ribozyme excess",increases with increasing Mg concentration
same,cleavage of L-target by L-ribozyme,"[3]; FIGS. 4 to 11, all usual conditions (0.1-25 mM MgCl2, ribozyme excess to deficit)",effectively cuts
same,turnover rates of L-ribozyme with L-target,"[3]; FIGS. 4 to 11, relative to D-ribozyme with D-target",at least correspond to those of a D-ribozyme with a D-target
same,cleavage of D-target by L-ribozyme,"[4]; FIG. 2, MgCl2 0-25 mM, 0.2 μM target with 2 μM ribozyme",a notable reaction certainly occurs
same,proportion of cleavage products of the D-target by L-ribozyme as a function of MgCl2 concentration,"[4]; FIG. 2C, increasing Mg concentration",increases with increasing Mg concentration
same,proportion of cleavage products of the D-target by L-ribozyme over time,"[4]; FIG. 3, 10 mM MgCl2, times 0 to 256 min, compared with L-target/D-ribozyme",increases with time
same,cleavage of L-target by L-ribozyme in human serum,[5],functions effectively
